Results as given in PMC5419589 (Bioorganic & medicinal chemistry, 2016).
Counter-ions that a name gives are not always drawn.

Assays:
[1] = tested on: T. brucei brucei strain BF427; test: T. brucei growth inhibition assay; assay type: cell-based, Trypanosoma brucei brucei; details: for activity on T. brucei cells (in words): T. brucei EC50 assay; for EC50: Trypanosoma brucei, 48 h, read-out: EC50, concentration required to inhibit growth by 50% of T. brucei brucei, strain BF427, 48H, AlamarBlue; for fold reduction of potency compared to compound 2: vs 2, T. brucei EC50; for fold enhancement of potency with respect to compound 1: vs 1, T. brucei EC50
[2] = tested on: T. brucei brucei (strain TREU667); test: Chronic; assay type: in vivo, mouse; details: for number of mice free of parasitemia/number of mice in the group: same dosing; for relapse with parasites in the blood / suppression of parasitemia during treatment phase: TREU667, 50 mg/kg twice a day oral day 21 to 34
[3] = day 35 post-infection, day 1 post-treatment
[4] = day 36 post-infection, day 2 post-treatment
[5] = day 37 post-infection, day 3 post-treatment
[6] = day 38 post-infection, day 4 post-treatment
[7] = day 39 post-infection, day 5 post-treatment
[8] = day 40 post-infection, day 6 post-treatment

CCN(C(=O)c1ccc(Cl)cc1Cl)c1ccc(F)cc1 [Compound 45, 2,4-Dichloro-N-ethyl-N-(4-fluorophenyl)benzamide]
activity on T. brucei cells (in words) [1]: eliminated anti-T. brucei activity | EC50 [1]: > 10 µM

Cl.NCCN(C(=O)c1ccc(Cl)cc1Cl)c1ccc([N+](=O)[O-])cc1 [Compound 9, N-(2-Aminoethyl)-2,4-dichloro-N-(4-nitrophenyl)benzamide hydrochloride]
activity on T. brucei cells (in words) [1]: eliminated activity

CC(=O)NCCN(C(=O)c1ccc(Cl)cc1Cl)c1ccc(Cl)cc1 [Compound 46, N-{2-[N-(4-Chlorophenyl)-1-(2,4-dichlorophenyl)formamido]ethyl}acetamide]
activity on T. brucei cells (in words) [1]: eliminated anti-T. brucei activity

Cl.NCCN(C(=O)c1c(F)c(F)c(F)c(F)c1F)c1ccc(Cl)cc1 [Compound 41, N-(2-Aminoethyl)-N-(4-chlorophenyl)-2,3,4,5,6-pentafluorobenzamide hydrochloride]
fold improvement in activity compared to 20 ([1]; vs 20): 26 fold

Cl.NCCN(C(=O)c1ccc(Cl)cc1Cl)c1cccc(Cl)c1 [Compound 11, N-(2-Aminoethyl)-2,4-dichloro-N-(3-chlorophenyl)benzamide hydrochloride]
fold reduction of potency compared to compound 2 [1]: 10 fold

COc1ccccc1C(=O)N(CCN)c1ccc(Cl)cc1.Cl [Compound 26, N-(2-Aminoethyl)-N-(4-chlorophenyl)-2-methoxybenzamide hydrochloride]
times less active compared to 23, 24 ([1]; vs 23, 24): at least 5 fold | times more potent than 4-methoxy (27) ([1]; vs 27): at least 4 fold

Cc1ccccc1C(=O)N(CCN)c1ccc(Cl)cc1.Cl [Compound 24, N-(2-Aminoethyl)-N-(4-chlorophenyl)-2-methylbenzamide hydrochloride]
fold more active than 4-methyl derivative 25 ([1]; vs 25): 14 fold

COc1ccc(N(CCN)C(=O)c2ccc(Cl)cc2Cl)cc1.Cl [Compound 8, N-(2-Aminoethyl)-2,4-dichloro-N-(4-methoxyphenyl)benzamide hydrochloride]
activity on T. brucei cells (in words) [1]: eliminated activity

N=C(N)c1ccc(/N=N/Nc2ccc(C(=N)N)cc2)cc1 [Diminazene, diminazene aceturate, reference compound]
number of mice free of parasitemia/number of mice in the group [2, 3]: 3/3 | number of mice free of parasitemia/number of mice in the group [2, 4]: 3/3 | number of mice free of parasitemia/number of mice in the group [2, 5]: 3/3 | number of mice free of parasitemia/number of mice in the group [2, 6]: 3/3 | number of mice free of parasitemia/number of mice in the group [2, 7]: 3/3 | number of mice free of parasitemia/number of mice in the group [2, 8]: 3/3 | number of mice free of parasitemia/number of mice in the group ([2]; day 41–42 post-infection, day 7–8 post-treatment): 3/3 | number of mice free of parasitemia/number of mice in the group ([2]; day 43–45 post-infection, day 9–11 post-treatment): 3/3 | number of mice free of parasitemia/number of mice in the group ([2]; day 46–49 post-infection, day 12–15 post-treatment): 1/3 | number of mice free of parasitemia/number of mice in the group ([2]; day 50–51 post-infection, day 16–17 post-treatment): 0/3

Cl.NCCN(C(=O)c1ccc(F)cc1F)c1ccc(Cl)cc1 [Compound 40, N-(2-Aminoethyl)-N-(4-chlorophenyl)-2,4-difluorobenzamide hydrochloride]
fold more active than 2-floro (30) or 4-fluoro (28) derivatives ([1]; vs 30 or 28): at least 3 fold

CC1(C)OB(O)c2cc(NC(=O)c3ccc(F)cc3C(F)(F)F)ccc21 [SCYX-7158, reference compound]
cure in late-stage model (in words) ([2]; 50 mg/kg PO twice per day): cured all mice

O=C(c1ccc(Cl)cc1Cl)N(CCO)c1ccc(Cl)cc1 [Compound 49, 2,4-Dichloro-N-(4-chlorophenyl)-N-(2-hydroxyethyl)benzamide]
activity on T. brucei cells (in words) [1]: inactive

Cl.NCCN(C(=O)c1ccc(Cl)cc1Cl)c1ccc(Cl)cc1 [Compound 2, N-(2-Aminoethyl)-2,4-dichloro-N-(4-chlorophenyl)benzamide]
fold enhancement of potency with respect to compound 1 [1]: 4 fold

Cl.O=C(c1ccc(Cl)cc1Cl)N(c1ccc(Cl)cc1)c1cccnc1 [Compound 63, 2,4-Dichloro-N-(4-chlorophenyl)-N-(pyridin-3-yl)benzamide]
activity on T. brucei cells (in words) [1]: inactive

CNCCN(C(=O)c1ccc(Cl)cc1Cl)c1ccc(Cl)cc1.Cl [Compound 58, 2,4-Dichloro-N-(4-chlorophenyl)-N-[2-(methylamino)ethyl] benzamide hydrochloride]
fold reduction of potency compared to compound 2 [1]: 5 fold

Cc1cc(C)cc(COc2ccc(N(CCN)C(=O)c3ccc(Cl)cc3Cl)cc2)c1.Cl [Compound 76, N-(2-Aminoethyl)-2,4-dichloro-N-{4-[(3,5-dimethylphenyl)methoxy]phenyl}benzamide hydrochloride]
relapse with parasites in the blood [2]: all mice relapsed | suppression of parasitemia during treatment phase [2]: partial suppression | number of mice free of parasitemia/number of mice in the group [2, 3]: 3/4 | number of mice free of parasitemia/number of mice in the group [2, 4]: 3/4 | number of mice free of parasitemia/number of mice in the group [2, 5]: 3/4 | number of mice free of parasitemia/number of mice in the group [2, 6]: 3/4 | number of mice free of parasitemia/number of mice in the group [2, 7]: 2/4 | number of mice free of parasitemia/number of mice in the group [2, 8]: 1/4

NCCN(C(=O)c1ccccc1C(F)(F)F)c1ccc(Cl)cc1 [Compound 42, N-(2-aminoethyl)-N-(4-chlorophenyl)-2-(trifluoromethyl) benzamide hydrochloride]
EC50 [1]: 0.18 µM

N#CCN(C(=O)c1ccc(Cl)cc1Cl)c1ccc(Cl)cc1 [Compound 60, 2,4-Dichloro-N-(4-chlorophenyl)-N-(cyanomethyl)benzamide]
activity on T. brucei cells (in words) [1]: inactive

O=C(c1ccc(Cl)cc1Cl)N(CCN1CCOCC1)c1ccc(Cl)cc1 [Compound 48, 2,4-Dichloro-N-(4-chlorophenyl)-N-[2-(morpholin-4-yl)ethyl] benzamide]
activity on T. brucei cells (in words) [1]: inactive

Cl.NCCCN(C(=O)c1ccc(Cl)cc1Cl)c1ccc(Cl)cc1 [Compound 50, N-(3-Aminopropyl)-2,4-dichloro-N-(4-chlorophenyl)benzamide]
fold reduction of potency compared to compound 2 [1]: 10 fold

Cl.NCCN(C(=O)c1cccnc1C(F)(F)F)c1ccc(OCc2ccc(Cl)cc2)cc1 [Compound 68, N-(2-Aminoethyl)-N-{4-[(4-chlorophenyl)methoxy]phenyl}-2-(trifluoromethyl)pyridine-3-carboxamide hydrochloride]
fold more active than 2-chloronicotinoyl (67) ([1]; vs 67): 10 fold

Cl.NCCN(C(=O)c1ccc(Cl)cc1Cl)c1ccc(N)cc1 [Compound 10, N-(2-Aminoethyl)-N-(4-aminophenyl)-2,4-dichlorobenzamide]
activity on T. brucei cells (in words) [1]: eliminated activity

Cl.NCCN(C(=O)c1ccc(Cl)cc1Cl)c1ccc(Oc2cccc(Cl)c2)cc1 [Compound 17, N-(2-Aminoethyl)-2,4-dichloro-N-[4-(3-chlorophenoxy)phenyl] benzamide hydrochloride]
fold enhancement of potency with respect to compound 1 [1]: 4 fold

Cl.NCCN(C(=O)c1cc([N+](=O)[O-])ccc1Cl)c1ccc(Cl)cc1 [Compound 36, N-(2-Aminoethyl)-2-chloro-N-(4-chlorophenyl)-5-nitrobenzamide hydrochloride]
times less potent than 2-chloro analogue 23 ([1]; vs 23): 3 fold

Cl.NCCN(C(=O)c1ccccc1C(F)(F)F)c1ccc(OCc2ccc(Cl)cc2)cc1 [Compound 66, N-(2-Aminoethyl)-N-{4-[(4-chlorophenyl)methoxy]phenyl}-2-(trifluoromethyl)benzamide hydrochloride]
activity on T. brucei cells (in words) [1]: single digit nanomolar EC50 values

Cl.NCCN(C(=O)c1ccccc1Cl)c1ccc(Cl)cc1 [Compound 23, N-(2-Aminoethyl)-2-chloro-N-(4-chlorophenyl)benzamide hydrochloride]
fold more active than 4-chlorobenzoyl derivative 21 ([1]; vs 21): ~8 fold | fold more active than 3-chloro (22) ([1]; vs 22): 3 fold

Cl.NCCN(C(=O)c1ccc(Cl)cc1Cl)c1ccc(Oc2ccc(Cl)cc2)cc1 [Compound 16, N-(2-Aminoethyl)-2,4-dichloro-N-[4-(4-chlorophenoxy)phenyl] benzamide hydrochloride]
fold enhancement of potency with respect to compound 1 [1]: 7 fold

Cl.NCCN(C(=O)c1ccc(Cl)cc1Cl)c1ccc(Br)cc1 [Compound 3, N-(2-Aminoethyl)-N-(4-bromophenyl)-2,4-dichlorobenzamide hydrochloride]
fold enhancement of potency with respect to compound 1 [1]: 4 fold

Cl.NCCN(C(=O)c1ccc(Cl)cc1Cl)c1ccc(Cl)cc1Cl [Compound 12, N-(2-Aminoethyl)-2,4-dichloro-N-(2,4-dichlorophenyl)benzamide]
fold enhancement of potency with respect to compound 1 [1]: more than 2 fold

CC(C)c1ccc(COc2ccc(N(CCN)C(=O)c3cccnc3Cl)cc2)cc1.Cl [Compound 72, N-(2-Aminoethyl)-2-chloro-N-(4-{[4-(propan-2-yl)phenyl]methoxy}phenyl)pyridine-3-carboxamide hydrochloride]
relapse with parasites in the blood [2]: all mice relapsed | suppression of parasitemia during treatment phase [2]: complete suppression | number of mice free of parasitemia/number of mice in the group [2, 3]: 5/5 | number of mice free of parasitemia/number of mice in the group [2, 4]: 5/5 | number of mice free of parasitemia/number of mice in the group [2, 5]: 4/5 | number of mice free of parasitemia/number of mice in the group [2, 7]: 2/5

CN(C)CCN(C(=O)c1ccc(Cl)cc1Cl)c1ccc(Cl)cc1 [Compound 47, 2,4-Dichloro-N-(4-chlorophenyl)-N-[2-(dimethylamino)ethyl] benzamide]
activity on T. brucei cells (in words) [1]: eliminated anti-T. brucei activity
